According to US10670605B2, “Cysteine reactive probes and uses thereof” (The Scripps Research Institute, priority 2015, dated 2020):

Key:
Experiment in all cases: Competitive isoTOP-ABPP in situ (fragment-treated cells)
Assay type in all cases: cell-based
[1] = target: T1, cysteines in MDA-MB-231 and Ramos cells (Homo sapiens, UniProt Q9Y3D0)
T1 sequence (Q9Y3D0 1-163): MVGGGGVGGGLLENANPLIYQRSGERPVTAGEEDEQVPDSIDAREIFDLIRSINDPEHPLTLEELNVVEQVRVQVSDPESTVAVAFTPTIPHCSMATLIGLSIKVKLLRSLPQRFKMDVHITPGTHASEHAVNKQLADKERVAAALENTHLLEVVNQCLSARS

[2] = target: T2, cysteines in MDA-MB-231 and Ramos cells (Homo sapiens, UniProt Q15084)
T2 sequence (Q15084 20-440): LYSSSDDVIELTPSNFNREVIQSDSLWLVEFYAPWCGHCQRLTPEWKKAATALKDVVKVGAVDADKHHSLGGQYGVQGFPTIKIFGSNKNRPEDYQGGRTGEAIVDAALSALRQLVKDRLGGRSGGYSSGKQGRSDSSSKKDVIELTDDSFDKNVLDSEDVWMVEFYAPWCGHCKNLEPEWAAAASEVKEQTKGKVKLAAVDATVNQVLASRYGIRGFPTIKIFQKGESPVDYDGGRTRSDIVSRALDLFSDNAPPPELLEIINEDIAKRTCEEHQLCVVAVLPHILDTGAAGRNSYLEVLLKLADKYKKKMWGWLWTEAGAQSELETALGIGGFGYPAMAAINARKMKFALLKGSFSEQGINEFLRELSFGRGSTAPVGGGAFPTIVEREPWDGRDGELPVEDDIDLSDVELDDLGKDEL

[3] = target: T3, cysteines in MDA-MB-231 and Ramos cells (Homo sapiens, UniProt P50570)
T3 sequence (P50570 1-870): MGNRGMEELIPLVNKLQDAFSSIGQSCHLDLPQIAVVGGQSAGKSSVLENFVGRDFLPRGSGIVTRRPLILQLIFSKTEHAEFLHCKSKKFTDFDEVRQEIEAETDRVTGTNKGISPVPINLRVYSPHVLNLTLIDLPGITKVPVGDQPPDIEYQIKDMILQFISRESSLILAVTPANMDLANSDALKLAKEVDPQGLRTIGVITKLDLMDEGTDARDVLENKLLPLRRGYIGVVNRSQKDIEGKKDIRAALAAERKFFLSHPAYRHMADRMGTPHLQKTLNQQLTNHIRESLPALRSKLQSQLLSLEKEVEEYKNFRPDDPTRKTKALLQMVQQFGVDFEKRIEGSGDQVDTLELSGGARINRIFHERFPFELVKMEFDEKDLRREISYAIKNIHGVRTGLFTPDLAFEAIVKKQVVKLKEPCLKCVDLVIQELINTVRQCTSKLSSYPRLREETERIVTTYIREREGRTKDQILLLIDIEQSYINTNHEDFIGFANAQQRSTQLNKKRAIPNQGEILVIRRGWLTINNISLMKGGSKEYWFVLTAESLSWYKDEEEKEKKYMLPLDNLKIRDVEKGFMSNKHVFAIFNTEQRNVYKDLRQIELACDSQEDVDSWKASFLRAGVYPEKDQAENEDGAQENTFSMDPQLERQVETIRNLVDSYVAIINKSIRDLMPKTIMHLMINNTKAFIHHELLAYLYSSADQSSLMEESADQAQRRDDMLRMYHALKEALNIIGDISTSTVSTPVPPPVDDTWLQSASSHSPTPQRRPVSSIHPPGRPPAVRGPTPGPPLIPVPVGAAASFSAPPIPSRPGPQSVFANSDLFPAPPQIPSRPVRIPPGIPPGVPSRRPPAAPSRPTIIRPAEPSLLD

[4] = target: T4, cysteines in MDA-MB-231 and Ramos cells (Homo sapiens, UniProt Q9NS86)
T4 sequence (Q9NS86 1-450): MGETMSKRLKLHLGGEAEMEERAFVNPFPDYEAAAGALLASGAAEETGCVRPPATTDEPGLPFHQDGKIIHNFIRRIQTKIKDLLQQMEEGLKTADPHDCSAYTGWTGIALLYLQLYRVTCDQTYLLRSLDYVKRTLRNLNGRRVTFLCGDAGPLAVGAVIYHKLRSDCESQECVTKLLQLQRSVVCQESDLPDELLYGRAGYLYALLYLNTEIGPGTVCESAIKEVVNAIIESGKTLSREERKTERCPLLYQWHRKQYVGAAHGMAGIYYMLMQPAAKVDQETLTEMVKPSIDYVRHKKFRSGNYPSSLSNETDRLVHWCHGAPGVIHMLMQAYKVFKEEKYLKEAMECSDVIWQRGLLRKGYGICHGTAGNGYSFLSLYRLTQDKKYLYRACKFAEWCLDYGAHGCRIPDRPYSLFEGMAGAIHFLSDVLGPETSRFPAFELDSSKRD

[5] = target: T5, cysteines in MDA-MB-231 and Ramos cells (Homo sapiens, UniProt Q99497)
T5 sequence (Q99497 1-189): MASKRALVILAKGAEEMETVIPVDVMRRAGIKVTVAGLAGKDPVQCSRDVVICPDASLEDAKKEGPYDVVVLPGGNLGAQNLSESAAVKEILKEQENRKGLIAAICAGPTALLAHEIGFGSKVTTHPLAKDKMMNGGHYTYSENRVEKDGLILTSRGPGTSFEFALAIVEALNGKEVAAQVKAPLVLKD

Row | Compound | isoTOP-ABPP ratio Q9Y3D0_C93 ([1]; 200 μM, insitu, 231) | isoTOP-ABPP ratio Q15084_C55 ([2]; 200 μM, insitu, 231) | isoTOP-ABPP ratio, Q15084_C190 ([2]; 200 μM, insitu, 231) | isoTOP-ABPP ratio Q9NS86_C187 ([4]; 200 μM, insitu, 231) | isoTOP-ABPP ratio Q99497_C106 ([5]; 200 μM, insitu, 231) | isoTOP-ABPP ratio P50570_C27 ([3]; 200 μM, insitu, 231) | other results
1 | COc1ccc2c(c1)CCCN2C(=O)CCl [compound 2] |  |  |  |  |  |  | isoTOP-ABPP reactivity Q9Y3D0_C93 FAM96B ([1]; 200 μM, insitu, 231): 20.0; isoTOP-ABPP reactivity Q15084_C55 PDIA6 ([2]; 200 μM, insitu, 231): 3.0; isoTOP-ABPP reactivity P50570_C27 DNM2 ([3]; 200 μM, insitu, 231): 4.6
2 | COc1ccc(C2CC(c3cccs3)=NN2C(=O)CCl)cc1 (stereo not shown) [compound 4] |  |  |  |  |  |  | isoTOP-ABPP reactivity Q9Y3D0_C93 FAM96B ([1]; 100 μM in situ 231): 20.0; isoTOP-ABPP reactivity Q15084_C55 PDIA6 ([2]; 100 μM in situ 231): 4.9; isoTOP-ABPP reactivity Q15084_C190 PDIA6 ([2]; 100 μM in situ 231): 20.0; isoTOP-ABPP reactivity Q9NS86_C187 LANCL2 ([4]; 100 μM in situ 231): 1.6; isoTOP-ABPP reactivity Q99497_C106 PARK7 ([5]; 100 μM in situ 231): 0.9; isoTOP-ABPP reactivity P50570_C27 DNM2 ([3]; 100 μM in situ 231): 2.2
3 | COc1cc2c(cc1OC)CN(C(=O)CCl)CC2 [compound 8] |  |  |  |  |  |  | isoTOP-ABPP reactivity Q15084_C55 PDIA6 ([2]; 200 μM, insitu, 231): 4.4; isoTOP-ABPP reactivity Q15084_C190 PDIA6 ([2]; 200 μM, insitu, 231): 5.2; isoTOP-ABPP reactivity Q9NS86_C187 LANCL2 ([4]; 200 μM, insitu, 231): 6.1
4 | O=C(CCl)N1CCC(Cc2ccccc2)CC1 [compound 9] |  |  |  |  |  |  | isoTOP-ABPP reactivity Q15084_C55 PDIA6 ([2]; 200 μM, insitu, 231): 2.1; isoTOP-ABPP reactivity Q9NS86_C187 LANCL2 ([4]; 200 μM, insitu, 231): 15
5 | O=C(CCl)N1CCN(S(=O)(=O)c2ccccc2F)CC1 [compound 10] | 2.1 | 3.1 | 3.7 | 6.3 | 1.7 | 3.1 | 
6 | Cn1cc(S(=O)(=O)N2CCOCC2)cc1C(=O)NC(=O)CCl [compound 11] |  |  |  |  |  |  | isoTOP-ABPP ratio Q9Y3D0_C93 ([1]; 100 μM in situ 231): 0.9; isoTOP-ABPP ratio Q15084_C55 ([2]; 100 μM in situ 231): 4.3; isoTOP-ABPP ratio Q9NS86_C187 ([4]; 100 μM in situ 231): 0.8; isoTOP-ABPP ratio Q99497_C106 ([5]; 100 μM in situ 231): 1.3; isoTOP-ABPP ratio P50570_C27 ([3]; 100 μM in situ 231): 0.7
7 | O=C(CCl)NC(=O)NC12CC3CC(CC(C3)C1)C2 [compound 12] |  | 15.4 | 20.0 | 2.0 | 3.0 | 0.7 | 
8 | O=C(CCl)NCCc1c[nH]c2ccccc12 [compound 13] |  |  |  | 1.0 |  |  | isoTOP-ABPP ratio Q9Y3D0_C93 ([1]; 200 μM, insitu, ramos): 1.4; isoTOP-ABPP ratio Q15084_C55 ([2]; 200 μM, insitu, ramos): 1.5; isoTOP-ABPP ratio Q9NS86_C187 ([4]; 200 μM, insitu, ramos): 1.1; isoTOP-ABPP ratio Q99497_C106 ([5]; 200 μM, insitu, ramos): 3.3; isoTOP-ABPP ratio P50570_C27 ([3]; 200 μM, insitu, ramos): 1.0
9 | O=C(CCl)NC12CC3CC(CC(C3)C1)C2 [compound 21] | 0.5 | 0.9 |  | 0.9 |  | 0.8 | 
10 | CC(C)CCOCCNC(=O)CCl [compound 27] | 0.7 | 1.2 | 1.0 | 0.4 | 0.9 | 0.5 | 
11 | COc1ccccc1OCCNC(=O)CCl [compound 28] | 0.8 | 1.4 |  |  | 1.0 |  | 
12 | O=C(CCl)N1CCN(CC(=O)N2CCOCC2)CC1 [compound 29] |  |  |  |  |  |  | isoTOP-ABPP ratio Q9Y3D0_C93 ([1]; 200 μM, insitu, ramos): 1.0; isoTOP-ABPP ratio Q15084_C55 ([2]; 200 μM, insitu, ramos): 1.0; isoTOP-ABPP ratio, Q15084_C190 ([2]; 200 μM, insitu, ramos): 1.0; isoTOP-ABPP ratio Q9NS86_C187 ([4]; 200 μM, insitu, ramos): 1.7; isoTOP-ABPP ratio P50570_C27 ([3]; 200 μM, insitu, ramos): 1.0
13 | C=CC(=O)N(Cc1cccnc1)c1cc(C(F)(F)F)cc(C(F)(F)F)c1 [compound 31] |  | 0.7 | 1.0 | 0.5 | 0.8 |  | isoTOP-ABPP ratio Q99497_C106 ([5]; 200 μM, insitu, ramos): 1.0
14 | C=CC(=O)Nc1cc(F)c(N2CCN(C(=O)OC(C)(C)C)CC2)c(F)c1 [compound 38] | 2.4 | 0.8 | 1.0 | 2.0 | 1.1 | 0.9 | 
15 | Cc1ccc(C=C(C#N)C(=O)NCCN2CCOCC2)cc1 [compound 41] | 0.6 | 0.9 | 0.9 | 0.6 | 0.6 | 0.5 | 
16 | CC1CCc2ccccc2N1C(=O)CCl (stereo not shown) [compound 45] | 20.0 | 2.0 | 2.8 | 3.1 | 20.0 | 15.4 | 
17 | O=C(CCl)Nc1cccc2ncccc12 [compound 51] | 20.0 | 5.0 |  | 2.0 | 1.4 | 1.1 | 
